# Source: paper PMC10694853, “Bio-guided isolation of alpha-glucosidase inhibitory compounds from Vietnamese Garcinia schomburgkiana fruits: in vitro and in silico studies” (RSC Advances, 2023)
# Entries after “also recorded” stand apart in the source; their conditions may differ. Like-named read-outs stand apart in the source and are kept apart here.
# Experiments:
# yeast alpha-glucosidase = assay: Alpha-glucosidase inhibition assay; format: biochemical; settings: isolated compounds
# Description: Extracts and fractions EA1–EA16 were evaluated for the alpha-glucosidase inhibition to choose the fraction for further analysis. The isolation of 1–11 was described in Scheme 1 using silica gel CC with various solvent systems.
# Evaluation of the inhibitory activity of 1–11 against yeast alpha-glucosidase followed a previous procedure.[34]
# alpha-glucosidase [1] = settings: cited from earlier work; for IC50: read-out: Alpha-glucosidase inhibition IC50
# alpha-glucosidase [2] = assay: Kinetic study of alpha-glucosidase inhibition (Lineweaver–Burk plots); format: biochemical
# Description: To better understand the kinetic parameters of alpha-glucosidase inhibition by 2, the enzyme activity was assessed by varying substrate concentrations in the absence or presence of 2. The inhibition type was identified through Lineweaver–Burk plots (Fig. 3A), where the reciprocal of the reaction rate (1/V) was graphed against the reciprocal of substrate concentrations (1/[S]). This approach allowed monitoring the effect of the inhibitor on both Km and Vmax. […] The inhibition constant for the inhibitor binding with free enzyme (Ki) was determined from a plot of the slope (Km/Vm) versus the inhibitor concentration (Fig. 3B).
# The kinetics of 2 against alpha-glucosidase was conducted by varying the concentration of p-NPG substrate in the absence or presence of tested compound at different concentrations (0, 30.0, and 60.0 μM). The Lineweaver–Burk plots were used to determine the inhibition type. In addition, the inhibition constant Ki is an indication of the potency of an inhibitor and was determined from secondary plots of 1/V vs. [I].[35] The Lineweaver–Burk double-reciprocal plot (1/V vs. 1/[S]) was employed to discern the Vmax, […], and mode of inhibition (Fig. 10). [drawing 1]
# [3] = molecular target: protein tyrosine phosphatase 1B; set-up: method as in PMID 34111550; settings: isolated from H. forrestii; read-out: PTP1B inhibition IC50; cited from earlier work
Molecule,IC50 (yeast alpha-glucosidase) [µM],also measured
"CC(C)=CCCC1(C)C(CC=C(C)C)CC2(CC=C(C)C)C(=O)C(C(=O)c3ccccc3)=C(O)C1C2=O (stereo not drawn) [Compound 1, epi-guttiferone Q]",60.7 ± 3.6,
"CC(C)=CCC/C(C)=C/C[C@H]1C[C@]2(CC=C(C)C)C(=O)[C@@](CC=C(C)C)(C(=O)C(C(=O)c3ccc(O)c(O)c3)=C2O)[C@]1(C)CCC=C(C)C [Compound 2, guttiferone I]",29.4 ± 1.2,"IC50 (alpha-glucosidase [1]; compound from G. cowa): 13.1 µM; Inhibition type (alpha-glucosidase [2]; Lineweaver–Burk plots, Vmax constant, Km increased): competitive inhibitor; also recorded: competitive type; Ki (alpha-glucosidase [2]; from plot of slope (Km/Vm) versus inhibitor concentration, p-NPG substrate, read-out: Inhibition constant Ki): 69.2 µM"
"CC(C)=CCCC(C)=CCC12CC3CC4C(C)(C)CCC4(C1=O)C(=O)C(C(=O)c1ccccc1)(C2=O)C3(C)C (stereo not shown) [Compound 4, hypersampsone I]",131 ± 4.6,
"C=C(C)C1CC23C(=O)C4(CC=C(C)CCC=C(C)C)CC(CC2C1(C)C)C(C)(C)C(C(=O)c1ccccc1)(C4=O)C3=O (stereo not shown) [Compound 5, sampsonione D]",116 ± 2.7,
"CC(C)=CCC/C(C)=C/C[C@]12C[C@@H]3C[C@H]4C(C)(C)CC[C@@]4(C1=O)C(=O)[C@](C(=O)c1ccccc1)(C2=O)C3(C)C [Compound 6, sampsonione H]",56.9 ± 1.9,IC50 [3]: 6.63 ± 2.4 µM
"COc1cc2oc3cc(O)c(OC)c(CC=C(C)C)c3c(=O)c2c(O)c1CC=C(C)C [Compound 7, β-mangostin]",> 200,
"COc1c(O)cc2oc3cc(O)c(CC=C(C)C)c(O)c3c(=O)c2c1CC=C(C)C [Compound 8, α-mangostin]",> 200,
"COc1c(O)cc2oc3cc(O)c4c(c3c(=O)c2c1CC=C(C)C)OC(C)(C)C(O)C4 (stereo not shown) [Compound 11, 11-hydroxy-1-isomangostin]",> 200,
CC(C)=CCCC1(C)C(CC=C(C)C)CC2(CC=C(C)C)C(=O)C(C(=O)c3ccccc3)=C(O)C1C2=O (stereo not shown) [Guttiferone Q],,IC50 (alpha-glucosidase [1]): 118 µM
C[C@H]1O[C@H](O[C@H]2[C@H](O)[C@@H](O)[C@@H](O[C@H]3[C@H](O)[C@@H](O)C(O)O[C@@H]3CO)O[C@@H]2CO)[C@H](O)[C@@H](O)[C@@H]1N[C@H]1C=C(CO)[C@@H](O)[C@H](O)[C@H]1O (stereo partly shown) [acarbose],,"Inhibition type (alpha-glucosidase [1]; positive control, previous work): competitive inhibitor"
CC(C)=CCCC1(C)C(CC=C(C)C)CC23CCC(C)(C)OC2=C(C(=O)c2ccc(O)c(O)c2)C(=O)C1(CC=C(C)C)C3=O (stereo not shown) [schomburgkianone I],,IC50 (alpha-glucosidase [1]; isolated from Thai G. schomburgkiana sources): 21.2 µM
guttiferone K [Compound 3],16.2 ± 0.7,
